Holding throughout (assay): relative viability (nuclei count vs DMSO), 5 days (fraction); higher = more cells survive
Compound in test [1]: CC(C)(C)c1cc(NC(=O)Nc2ccc(-c3cn4c(n3)sc3cc(OCCN5CCOCC5)ccc34)cc2)no1 [Quizartinib] + NC(=O)Nc1cc(-c2cccc(F)c2)sc1C(=O)N[C@H]1CCCNC1 [AZD7762] (partner 0.2 µM)
The method in brief: (§1)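 Lung cancer cell lines were seeded in 1536-well plates and dosed by pin tool the next day, with either a single drug or a fixed anchor-drug dose combined with five library-drug doses (not always all listed) spaced in √10 steps. Five days later, one step fixed the cells and stained their nuclei (final 0.05% Triton X-100, 1% formaldehyde, 1 ug/ml Hoechst), and nuclei were counted on 4× images. Relative viability is the nuclei count in treated wells divided by the count in vehicle wells, and each value is the median of duplicate plates.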

Compound in test [2]: CC(C)(C)c1cc(NC(=O)Nc2ccc(-c3cn4c(n3)sc3cc(OCCN5CCOCC5)ccc34)cc2)no1 [Quizartinib] + COc1cccc2cc(-c3nc([C@H]4CC[C@H](C(=O)O)CC4)n4ncnc(N)c34)[nH]c12 [OSI-027] (partner 0.5 µM)
The essentials:
as §1

Compound in test [3]: CC(C)(C)c1cc(NC(=O)Nc2ccc(-c3cn4c(n3)sc3cc(OCCN5CCOCC5)ccc34)cc2)no1 [Quizartinib] + Cc1cc(Nc2cc(N3CCN(C)CC3)nc(Sc3ccc(NC(=O)C4CC4)cc3)n2)n[nH]1 [Tozasertib] (partner 0.1 µM)
The essentials: as §1

Compound in test [4]: COCC[n+]1c2c(n(Cc3cnccn3)c1C)C(=O)c1ccccc1C2=O [YM155] + Cc1nc(NC(=O)N2CCC[C@H]2C(N)=O)sc1-c1ccnc(C(C)(C)C(F)(F)F)c1 [Alpelisib] (partner 2 µM)
The essentials: as §1

As for 201T, the relative viability in test [1] (first compound 0.001 µM) worked out at 0.611; in test [1] (first compound 0.003162 µM), 0.573; in test [1] (first compound 0.01 µM), 0.653; in test [1] (first compound 0.03162 µM), 0.61; in test [1] (first compound 0.1 µM) it was 0.646; in test [2] (first compound 0.001 µM) it was 0.421. Further, the relative viability in test [2] (first compound 0.003162 µM) amounted to 0.691; in test [2] (first compound 0.01 µM), 0.692; in test [2] (first compound 0.03162 µM) it was 0.412; in test [2] (first compound 0.1 µM), 0.615; in test [3] (first compound 0.001 µM), 0.878; in test [3] (first compound 0.003162 µM), 0.858. The relative viability came out at 0.995 in test [3] (first compound 0.01 µM); 0.887 in test [3] (first compound 0.03162 µM); 0.854 in test [3] (first compound 0.1 µM); 1.01 in test [4] (first compound 0.002 µM); 1.03 in test [4] (first compound 0.006325 µM); 1.05 in test [4] (first compound 0.02 µM). Moreover, the relative viability in test [4] (first compound 0.06325 µM) is 1.02.

Take A549: the relative viability in test [4] (first compound 0.002 µM) was 0.673; in test [4] (first compound 0.006325 µM) it was 0.759; in test [4] (first compound 0.02 µM), 0.838; in test [4] (first compound 0.06325 µM), 0.35.

On to A-427, for which the relative viability worked out at 0.467 in test [1] (first compound 0.001 µM); 0.676 in test [1] (first compound 0.003162 µM); 0.722 in test [1] (first compound 0.01 µM); 0.639 in test [1] (first compound 0.03162 µM); 0.718 in test [1] (first compound 0.1 µM); 0.446 in test [2] (first compound 0.003162 µM). Also, the relative viability is 0.437 in test [2] (first compound 0.01 µM); 0.484 in test [2] (first compound 0.03162 µM); 0.529 in test [2] (first compound 0.1 µM); 0.204 in test [3] (first compound 0.003162 µM); 0.191 in test [3] (first compound 0.01 µM); 0.204 in test [3] (first compound 0.03162 µM). Also, the relative viability came out at 0.189 in test [3] (first compound 0.1 µM); 1.08 in test [4] (first compound 0.002 µM); 1.06 in test [4] (first compound 0.006325 µM); 1.09 in test [4] (first compound 0.02 µM); 1.12 in test [4] (first compound 0.06325 µM).

On to ABC-1, for which the relative viability worked out at 0.717 in test [1] (first compound 0.001 µM); 0.783 in test [1] (first compound 0.003162 µM); 0.784 in test [1] (first compound 0.01 µM); 0.913 in test [1] (first compound 0.03162 µM); 0.827 in test [1] (first compound 0.1 µM); 0.428 in test [2] (first compound 0.001 µM). For the same cell line, the relative viability in test [2] (first compound 0.003162 µM) was 0.472; in test [2] (first compound 0.01 µM) it was 0.495; in test [2] (first compound 0.03162 µM) it was 0.383; in test [2] (first compound 0.1 µM), 0.415; in test [3] (first compound 0.001 µM), 0.184; in test [3] (first compound 0.003162 µM), 0.179. The relative viability in test [3] (first compound 0.01 µM) was 0.172; in test [3] (first compound 0.03162 µM) it was 0.205; in test [3] (first compound 0.1 µM) it was 0.183; in test [4] (first compound 0.002 µM), 0.85; in test [4] (first compound 0.006325 µM), 0.368; in test [4] (first compound 0.02 µM) it was 0.264. Also, the relative viability in test [4] (first compound 0.06325 µM) is 0.243.

Regarding BEN, the relative viability in test [1] (first compound 0.001 µM) was 0.66; in test [1] (first compound 0.003162 µM) it was 0.766; in test [1] (first compound 0.01 µM) it was 0.563; in test [1] (first compound 0.03162 µM), 0.582; in test [1] (first compound 0.1 µM), 0.676; in test [2] (first compound 0.001 µM) it was 0.259. Also, the relative viability in test [2] (first compound 0.003162 µM) was 0.326; in test [2] (first compound 0.01 µM), 0.325; in test [2] (first compound 0.03162 µM), 0.282; in test [2] (first compound 0.1 µM) it was 0.284; in test [3] (first compound 0.001 µM) it was 0.48; in test [3] (first compound 0.003162 µM), 0.504. Besides, the relative viability in test [3] (first compound 0.01 µM) is 0.562; in test [3] (first compound 0.03162 µM) it was 0.54; in test [3] (first compound 0.1 µM) it was 0.39; in test [4] (first compound 0.002 µM), 1.1; in test [4] (first compound 0.006325 µM) it was 1.06; in test [4] (first compound 0.02 µM), 0.965. Further, in test [4] (first compound 0.06325 µM), the relative viability was 1.13.

With CAL-12T, the relative viability in test [1] (first compound 0.001 µM) was found to be 0.632; in test [1] (first compound 0.003162 µM), 0.663; in test [1] (first compound 0.01 µM), 0.759; in test [1] (first compound 0.03162 µM) it was 0.495; in test [1] (first compound 0.1 µM), 0.689; in test [2] (first compound 0.001 µM), 0.658. Besides, the relative viability in test [2] (first compound 0.003162 µM) came to 0.683; in test [2] (first compound 0.01 µM), 0.862; in test [2] (first compound 0.03162 µM) it was 0.503; in test [2] (first compound 0.1 µM) it was 0.846; in test [3] (first compound 0.001 µM), 0.32; in test [3] (first compound 0.003162 µM), 0.283. Also, the relative viability in test [3] (first compound 0.01 µM) stood at 0.315; in test [3] (first compound 0.03162 µM) it was 0.234; in test [3] (first compound 0.1 µM), 0.199; in test [4] (first compound 0.002 µM), 1.02; in test [4] (first compound 0.006325 µM) it was 1.29; in test [4] (first compound 0.02 µM), 0.921. Also, in test [4] (first compound 0.06325 µM), the relative viability was found to be 0.25.

As to COR-L23, the relative viability is 0.743 in test [2] (first compound 0.001 µM); 0.73 in test [2] (first compound 0.003162 µM); 0.946 in test [2] (first compound 0.01 µM); 0.696 in test [2] (first compound 0.03162 µM); 0.768 in test [2] (first compound 0.1 µM); 0.175 in test [3] (first compound 0.001 µM). Further, the relative viability in test [3] (first compound 0.003162 µM) stood at 0.178; in test [3] (first compound 0.01 µM) it was 0.159; in test [3] (first compound 0.03162 µM), 0.116; in test [3] (first compound 0.1 µM), 0.139; in test [4] (first compound 0.002 µM) it was 0.646; in test [4] (first compound 0.006325 µM), 0.671. Besides, the relative viability in test [4] (first compound 0.02 µM) is 0.449; in test [4] (first compound 0.06325 µM) it was 0.154.

As to COR-L 105, the relative viability was 0.656 in test [2] (first compound 0.001 µM); 0.69 in test [2] (first compound 0.003162 µM); 0.649 in test [2] (first compound 0.01 µM); 0.619 in test [2] (first compound 0.03162 µM); 0.678 in test [2] (first compound 0.1 µM); 0.344 in test [3] (first compound 0.001 µM). The relative viability in test [3] (first compound 0.003162 µM) was found to be 0.343; in test [3] (first compound 0.01 µM), 0.42; in test [3] (first compound 0.03162 µM), 0.36; in test [3] (first compound 0.1 µM), 0.347; in test [4] (first compound 0.002 µM) it was 1.1; in test [4] (first compound 0.006325 µM), 1.3. Further, the figures for the relative viability in test [4] (first compound 0.02 µM) and in test [4] (first compound 0.06325 µM) were 0.945 and 0.588, respectively.

As to Calu-6, the relative viability in test [4] (first compound 0.002 µM) amounted to 0.937; in test [4] (first compound 0.006325 µM) it was 0.578; in test [4] (first compound 0.02 µM), 0.309; in test [4] (first compound 0.06325 µM) it was 0.252.

ChaGo-K-1: the relative viability came to 0.841 in test [1] (first compound 0.003162 µM); 0.981 in test [1] (first compound 0.01 µM); 0.84 in test [1] (first compound 0.03162 µM); 0.932 in test [1] (first compound 0.1 µM); 0.574 in test [2] (first compound 0.001 µM); 0.613 in test [2] (first compound 0.003162 µM). Moreover, the relative viability in test [2] (first compound 0.01 µM) came to 0.61; in test [2] (first compound 0.03162 µM), 0.514; in test [2] (first compound 0.1 µM), 0.584; in test [3] (first compound 0.001 µM) it was 0.235; in test [3] (first compound 0.003162 µM) it was 0.234; in test [3] (first compound 0.01 µM) it was 0.209. The relative viability stood at 0.205 in test [3] (first compound 0.03162 µM) and 0.197 in test [3] (first compound 0.1 µM).

Consider EBC-1, for which the relative viability in test [4] (first compound 0.002 µM) was determined as 0.786; in test [4] (first compound 0.006325 µM), 0.862; in test [4] (first compound 0.02 µM), 0.95; in test [4] (first compound 0.06325 µM), 0.9.

Values taken from the supplement of paper PMC10307832.
